Assay results as given in patent publication EP0993437B1, “2-(4-BROMO OR 4-IODO PHENYLAMINO) BENZOIC ACID DERIVATIVES AND THEIR USE AS MEK INHIBITORS” (Warner-Lambert Company LLC, priority 1997, dated 1999).

Target: MEK
Assay: Cascade assay for inhibitors of the MAP kinase pathway (In Vitro)
Type: biochemical
Experimental: Incorporation of ^32P into myelin basic protein (MBP) was assayed in the presence of a glutathione S-transferase fusion protein containing p44MAP kinase (GST-MAPK) and a glutathione S-transferase fusion protein containing p45MEK (GST-MEK). The assay solution contained 20 mM HEPES, pH 7.4, 10 mM MgCl2, 1-mM MnCl2, 1 mM EGTA, 50 µM [γ-^32P]ATP, 10 µg GST-MEK, 0.5 µg GST-MAPK and 40 µg MBP in a final volume of 100 µL. […] Compounds were assessed at 10 µM for ability to inhibit incorporation of ^32P.
To ascertain whether compounds were inhibiting GST-MEK or GST MAPK, two additional protocols were employed. In the first protocol, compounds were added to tubes containing GST-MEK, followed by addition of GST-MAPK, MBP and [γ-^32P]ATP.

IC50 [nM]	Compound
86	Cc1cc(I)ccc1Nc1ccc(Br)cc1C(=O)O [Example 8, 5-Bromo-2-(4-iodo-2-methyl-phenylamino)-benzoic acid]
101	Cc1c(Nc2cc(F)ccc2C(=O)O)ccc(I)c1F [Example 10, 4-Fluoro-2-(3-fluoro-4-iodo-2-methyl-phenylamino)-benzoic acid]
128	Cc1cc(I)ccc1Nc1ccc([N+](=O)[O-])cc1C(=O)O [Example 11, 2-(4-Iodo-2-methyl-phenylamino)-5-nitro-benzoic acid]
135	O=C(O)c1cc([N+](=O)[O-])ccc1Nc1ccc(I)cc1F [Example 12, 2-(2-Fluoro-4-iodo-phenylamino)-5-nitro-benzoic acid]
194	Cc1cc(Br)ccc1Nc1c(C(=O)O)ccc(F)c1F [Example 15, 2-(4-Bromo-2-methyl-phenylamino)-3,4-difluoro-benzoic acid]
323	Cc1cc(I)ccc1Nc1c(F)cccc1C(=O)O [Example 16, 3-Fluoro-2-(4-iodo-2-methyl-phenylamino)-benzoic acid]
446	Cc1cc(I)ccc1Nc1cc(Cl)ccc1C(=O)O [Example 18, 4-Chloro-2-(4-iodo-2-methyl-phenylamino)-benzoic acid]
557	Cc1cc(I)ccc1Nc1ccc(F)cc1C(=O)O [Example 20, 5-Fluoro-2-(4-iodo-2-methyl-phenylamino)-benzoic acid]
569	Cc1cc(I)ccc1Nc1ccc(I)cc1C(=O)O [Example 21, 5-Iodo-2-(4-iodo-2-methyl-phenylamino)-benzoic acid]
1590	Cc1c(Nc2cc(F)ccc2C(=O)O)ccc(I)c1Cl [Example 23, 4-Fluoro-2-(3-chloro-4-iodo-2-methyl-phenylamino)-benzoic acid]
2360	O=C(O)c1cccc(Cl)c1Nc1ccc(I)cc1Cl [Example 25, 3-Chloro-2-(2-chloro-4-iodo-phenylamino)-benzoic acid]
5330	Cc1cc(I)ccc1Nc1cccc(Cl)c1C(=O)O [Example 29, 2-Chloro-6-(4-iodo-2-methyl-phenylamino)-benzoic acid]
226	Cc1cc(I)ccc1Nc1ccc(Cl)cc1C(=O)NCCO [Example 31, 5-Chloro-N-(2-hydroxyethyl)-2-(4-iodo-2-methyl-phenylamino)-benzamide]
52	Cc1cc(I)ccc1Nc1cc(F)ccc1C(N)=O [Example 33, 4-Fluoro-2-(4-iodo-2-methyl-phenylamino)-benzamide]
98	CNC(=O)c1ccc(F)cc1Nc1ccc(I)cc1C [Example 34, 4-Fluoro-2-(4-iodo-2-methyl-phenylamino)-N-methyl-benzamide]
121	CCNC(=O)c1ccc(F)cc1Nc1ccc(I)cc1C [Example 35, N-Ethyl-4-fluoro-2-(4-iodo-2-methyl-phenylamino)-benzamide]
129	Cc1cc(I)ccc1Nc1cc(F)ccc1C(=O)N(C)C [Example 36, 4-Fluoro-2-(4-iodo-2-methyl-phenylamino)-N,N-dimethyl-benzamide]
412	Cc1cc(I)ccc1Nc1ccc(Br)cc1C(N)=O [Example 38, 5-Bromo-2-(4-iodo-2-methyl-phenylamino)-benzamide]
497	Cc1cc(I)ccc1Nc1ccc(Cl)cc1C(=O)N(C)C [Example 39, 5-Chloro-2-(4-iodo-2-methyl-phenylamino)-N,N-dimethyl-benzamide]
> 1000	CCN(CC)C(=O)c1ccc(F)cc1Nc1ccc(I)cc1C [Example 43, N,N-Diethyl-4-fluoro-2-(4-iodo-2-methyl-phenylamino)-benzamide]
1760	CCN(CC)C(=O)c1cc([N+](=O)[O-])ccc1Nc1ccc(I)cc1C [Example 45, N,N-Diethyl-2-(4-iodo-2-methyl-phenylamino)-5-nitro-benzamide]
1910	CCN(CC)C(=O)c1cc(Cl)ccc1Nc1ccc(I)cc1C [Example 47, 5-Chloro-N,N-diethyl-2-(4-iodo-2-methyl-phenylamino)-benzamide]
179	Cc1cc(I)ccc1Nc1ccc(Cl)cc1CO [Example 50, [5-Chloro-2-(4-iodo-2-methyl-phenylamino)-phenyl]-methanol]
521	CCN(CC)CCNC(=O)c1cc(Cl)ccc1Nc1ccc(I)cc1C [Example 93, 5-Chloro-N-(2-diethylamino-ethyl)-2-(4-iodo-2-methyl-phenylamino)-benzamide]
1000	Cc1cc(I)ccc1Nc1ccc([N+](=O)[O-])cc1C(=O)N1CCC(O)C1 (stereo not drawn) [Example 95, (3-Hydroxy-pyrrolidin-1-yl)-[2-(4-iodo-2-methyl-phenylamino)-5-nitro-phenyl]-methanone]
374	Cc1cc(I)ccc1Nc1ccc(Cl)cc1C(=O)NCCN1CCCC1 [Example 96, 5-Chloro-2-(4-iodo-2-methyl-phenylamino)-N-(2-pyrrolidin-1-yl-ethyl)-benzamide]
1990	Cc1cc(I)ccc1Nc1ccc(Br)cc1C(=O)N1CCC(O)C1 (stereo not drawn) [Example 100, [5-Bromo-2-(4-iodo-2-methyl-phenylamino)-phenyl]-(3-hydroxy-pyrrolidin-1-yl)-]

Further lines, the compound ahead of its results:

Compound	IC50 [nM]
5-Bromo-3,4-difluoro-2-(4-iodo-2-methyl-phenylamino)-N-(2-piperidin-1-yl-ethyl)-benzamide [Example 55]	114
5-Bromo-3,4-difluoro-N-(2-hydroxy-ethyl)-2-(4-iodo-2-methyl-phenylamino)-benzamide [Example 53]	47
5-Fluoro-N-{3-[4-(2-hydroxy-ethyl)-piperazin-1-yl]-propyl}-2-(4-iodo-2-methyl-phenylamino)-benzamide [Example 90]	604
Cc1cc(I)ccc1Nc1cc(F)ccc1C(=O)O [Example 1, 4-Fluoro-2-(4-iodo-2-methylphenylamino)benzoic acid]	19
O=C(O)c1cc(Cl)ccc1Nc1ccc(I)cc1Cl [Example 5, 5-Chloro-2-(2-chloro-4-iodo-phenylamino)-benzoic acid]	66
Cc1cc(I)ccc1Nc1ccc(Cl)cc1C(=O)O [Example 6, 5-Chloro-2-(4-iodo-2-methyl-phenylamino)-benzoic acid]	71
O=C(O)c1cc([N+](=O)[O-])ccc1Nc1ccc(I)cc1Cl [Example 9, 2-(2-Chloro-4-iodo-phenylamino)-5-nitro-benzoic acid]	97
Cc1cc(Br)ccc1Nc1cc(F)ccc1C(=O)O [Example 13, 2-(4-Bromo-2-methyl-phenylamino)-4-fluoro-benzoic acid]	178
O=C(O)c1cc([N+](=O)[O-])ccc1Nc1ccc(I)cc1Br [Example 14, 2-(2-Bromo-4-iodo-phenylamino)-5-nitro-benzoic acid]	179
COc1cc(I)ccc1Nc1c(C(=O)O)ccc(F)c1F [Example 17, 3,4-Difluoro-2-(4-iodo-2-methoxy-phenylamino)-benzoic acid]	434
COc1ccc(Nc2ccc(I)cc2)c(C(=O)O)c1 [Example 24, 2-(4-Iodo-phenylamino)-5-methoxy-benzoic acid]	1940
Cc1ccc(Nc2ccc(I)cc2C)c(C(=O)O)c1 [Example 28, 5-Methyl-2-(4-iodo-2-methyl-phenylamino)-benzoic acid]	3670
COc1ccc(NC(=O)c2ccc(OC)c([N+](=O)[O-])c2)cc1 [Example 32, 4-Methoxy-N-(4-methoxy-phenyl)-3-nitro-benzamide]	28
Cc1cc(I)ccc1Nc1cc(F)ccc1C(=O)Nc1nnn[nH]1 [Example 37, 4-Fluoro-2-(4-iodo-2-methyl-phenylamino)-N-(1H-tetrazol-5-yl)-benzamide]	237
Cc1cc(I)ccc1Nc1ccc(Cl)cc1C(=O)NCC(=O)O [Example 40]	651
CCCNC(=O)c1ccc(F)cc1Nc1ccc(I)cc1C [Example 41, 4-Fluoro-2-(4-iodo-2-methyl-phenylamino)-N-propyl-benzamide]	872
Cc1cc(I)ccc1Nc1ccc(Br)cc1C(=O)NCCO [Example 42, 5-Bromo-N-(2-hydroxy-ethyl)-2-(4-iodo-2-methyl-phenylamino)-benzamide]	920
Cc1cc(I)ccc1Nc1cc(F)ccc1C(=O)NCCCN1CCN(CCO)CC1 [Example 44, 4-Fluoro-N-{3-[4-(2-hydroxy-ethyl)-piperazin-1-yl]-propyl}-2-(4-iodo-2-methyl-phenylamino)-benzamide]	1480
CCCCNC(=O)c1ccc(F)cc1Nc1ccc(I)cc1C [Example 46, N-Butyl-4-fluoro-2-(4-iodo-2-methyl-phenylamino)-benzamide]	1810
Cc1cc(I)ccc1Nc1ccc(Br)cc1C(=O)N(C)C [Example 48, 5-Bromo-2-(4-iodo-2-methyl-phenylamino)-N,N-dimethyl-benzamide]	1940
Cc1cc(I)ccc1Nc1ccc([N+](=O)[O-])cc1CO [Example 51, [2-(4-Iodo-2-methyl-phenylamino)-5-nitro-phenyl]-methanol]	887
Cc1cc(I)ccc1Nc1ccc(Br)cc1CO [Example 52, [5-Bromo-2-(4-iodo-2-methyl-phenylamino)-phenyl]-methanol]	2350
Cc1cc(I)ccc1Nc1ccc(Br)cc1C(=O)NCCCN1CCN(CCO)CC1 [Example 92, 5-Bromo-N-{3-[4-(2-hydroxy-ethyl)-piperazin-1-yl]-propyl}-2-(4-iodo-2-methyl-phenylamino)-benzamide]	253
Cc1cc(I)ccc1Nc1ccc([N+](=O)[O-])cc1C(=O)NC1CCCCC1 [Example 184, N-Cyclohexyl-2-(4-iodo-2-methyl-phenylamino)-5-nitro-benzamide]	278
